What was measured:
JH2 domain of human Tyk2 = JH2 domain of human Tyk2 (Homo sapiens (Human), UniProt P29597); test: JH2 Biochemical Assay (TR-FRET probe displacement); format: binding; details: JH2 domain of human Tyk2, TR-FRET probe displacement
Tyk2 = Tyk2 (Homo sapiens (Human), UniProt P29597); test: pSTAT4 Cell Assay (MSD, NK92 cells); format: cell-based; details: MSD
Tyk2, sequence (P29597 whole entry): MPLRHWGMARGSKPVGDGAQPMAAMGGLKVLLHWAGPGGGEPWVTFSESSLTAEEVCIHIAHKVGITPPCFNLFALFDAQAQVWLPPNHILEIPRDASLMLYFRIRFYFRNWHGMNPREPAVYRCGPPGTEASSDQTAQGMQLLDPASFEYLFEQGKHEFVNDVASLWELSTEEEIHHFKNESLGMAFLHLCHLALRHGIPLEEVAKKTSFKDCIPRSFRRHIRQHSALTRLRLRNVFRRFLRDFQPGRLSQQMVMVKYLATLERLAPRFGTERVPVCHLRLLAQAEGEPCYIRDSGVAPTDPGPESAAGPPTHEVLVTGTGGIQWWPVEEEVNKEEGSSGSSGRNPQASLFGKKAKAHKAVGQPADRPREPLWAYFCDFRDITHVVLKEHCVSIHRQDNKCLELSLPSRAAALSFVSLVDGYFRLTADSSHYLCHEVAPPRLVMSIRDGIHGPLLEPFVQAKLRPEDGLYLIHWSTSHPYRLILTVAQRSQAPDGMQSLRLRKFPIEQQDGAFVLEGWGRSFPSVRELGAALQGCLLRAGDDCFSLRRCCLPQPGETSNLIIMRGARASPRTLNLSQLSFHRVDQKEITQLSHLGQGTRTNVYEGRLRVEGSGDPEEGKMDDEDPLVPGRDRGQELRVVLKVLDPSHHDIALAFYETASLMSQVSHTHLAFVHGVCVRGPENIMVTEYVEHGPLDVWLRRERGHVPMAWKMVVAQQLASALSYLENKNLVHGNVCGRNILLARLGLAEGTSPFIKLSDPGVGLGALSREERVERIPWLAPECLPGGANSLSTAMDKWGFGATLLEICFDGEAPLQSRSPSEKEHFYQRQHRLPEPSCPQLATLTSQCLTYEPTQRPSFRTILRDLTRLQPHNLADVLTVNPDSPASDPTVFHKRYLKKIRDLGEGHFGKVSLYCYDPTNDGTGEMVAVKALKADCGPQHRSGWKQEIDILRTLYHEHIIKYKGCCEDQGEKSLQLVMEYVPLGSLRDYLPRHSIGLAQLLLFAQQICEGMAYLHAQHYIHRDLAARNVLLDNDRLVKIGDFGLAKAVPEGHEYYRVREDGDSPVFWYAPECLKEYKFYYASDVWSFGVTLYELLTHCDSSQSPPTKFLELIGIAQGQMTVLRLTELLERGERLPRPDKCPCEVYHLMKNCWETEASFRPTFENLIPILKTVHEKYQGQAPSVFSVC

JH2 domain of human Tyk2, sequence (P29597 575-876): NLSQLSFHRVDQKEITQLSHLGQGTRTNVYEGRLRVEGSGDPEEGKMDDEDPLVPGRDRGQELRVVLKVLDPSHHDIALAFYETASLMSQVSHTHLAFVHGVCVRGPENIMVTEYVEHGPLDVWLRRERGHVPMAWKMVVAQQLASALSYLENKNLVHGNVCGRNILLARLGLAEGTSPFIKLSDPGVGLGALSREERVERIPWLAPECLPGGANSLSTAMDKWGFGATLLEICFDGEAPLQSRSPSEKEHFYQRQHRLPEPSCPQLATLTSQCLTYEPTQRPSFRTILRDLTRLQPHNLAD

Structure (SMILES) | IC50 (JH2 domain of human Tyk2) | IC50 (Tyk2)
COc1cnc(NC(C)=O)cc1Nc1cc(-c2ccncc2)nc(C(C)(F)F)n1 [Example 382, N-(4-((2-(1,1-difluoroethyl)-6-(pyridin-4-yl)pyrimidin-4-yl)amino)-5-methoxypyridin-2-yl)acetamide] | 10 to 100 nM | 10 to 100 nM
COc1cnc(NC(C)=O)cc1Nc1cc(-c2cnn(C(C)C)c2F)nc(C(C)(F)F)n1 [Example 383, N-(4-((2-(1,1-difluoroethyl)-6-(5-fluoro-1-isopropyl-1H-pyrazol-4-yl)pyrimidin-4-yl)amino)-5-methoxypyridin-2-yl)acetamide] | 10 to 100 nM | 10 to 100 nM
COc1cnc(NC(C)=O)cc1Nc1cc(-c2cn[nH]c2F)nc(C(C)(F)F)n1 [Example 385, N-(4-((2-(1,1-difluoroethyl)-6-(5-fluoro-1H-pyrazol-4-yl)pyrimidin-4-yl)amino)-5-methoxypyridin-2-yl)acetamide] | 10 to 100 nM | 100 to 1000 nM
COCCn1cc(-c2cc(Nc3cc(NC(C)=O)ncc3OC)nc(C(C)(F)F)n2)cn1 [Example 386, N-(4-((2-(1,1-difluoroethyl)-6-(1-(2-methoxyethyl)-1H-pyrazol-4-yl)pyrimidin-4-yl)amino)-5-methoxypyridin-2-yl)acetamide] | ≤ 10 nM | 10 to 100 nM
COc1cnc(NC(C)=O)cc1Nc1cc(-c2cccnc2)nc(C(C)(F)F)n1 [Example 388, N-(4-((2-(1,1-difluoroethyl)-6-(pyridin-3-yl)pyrimidin-4-yl)amino)-5-methoxypyridin-2-yl)acetamide] | ≤ 10 nM | 10 to 100 nM
COc1cnc(NC(C)=O)cc1Nc1cc(-c2cncc(C)c2)nc(C(C)(F)F)n1 [Example 389, N-(4-((2-(1,1-difluoroethyl)-6-(5-methylpyridin-3-yl)pyrimidin-4-yl)amino)-5-methoxypyridin-2-yl)acetamide] | ≤ 10 nM | 10 to 100 nM
COc1cnc(NC(C)=O)cc1Nc1cc(-c2cnc(N3CCOCC3)nc2)nc(C(C)(F)F)n1 [Example 390, N-(4-((2-(1,1-difluoroethyl)-2′-morpholino-[4,5′-bipyrimidin]-6-yl)amino)-5-methoxypyridin-2-yl)acetamide] | 10 to 100 nM | 100 to 1000 nM
COc1ccc(-c2cc(Nc3cc(NC(C)=O)ncc3OC)nc(C(C)(F)F)n2)cn1 [Example 391, N-(4-((2-(1,1-difluoroethyl)-6-(6-methoxypyridin-3-yl)pyrimidin-4-yl)amino)-5-methoxypyridin-2-yl)acetamide] | ≤ 10 nM | 10 to 100 nM
COc1ccc(-c2cc(Nc3cc(NC(C)=O)ncc3OC)nc(C(C)(F)F)n2)cn1 [Example 392, N-(4-((2-(1,1-difluoroethyl)-6-(6-methoxypyridin-3-yl)pyrimidin-4-yl)amino)-5-methoxypyridin-2-yl)acetamide] | ≤ 10 nM | ≤ 10 nM
COc1cnc(NC(C)=O)cc1Nc1cc(-c2ccc(C#N)cc2)nc(C(C)(F)F)n1 [Example 393, N-(4-((6-(4-cyanophenyl)-2-(1,1-difluoroethyl)pyrimidin-4-yl)amino)-5-methoxypyridin-2-yl)acetamide] | ≤ 10 nM | 10 to 100 nM
COc1cnc(NC(C)=O)cc1Nc1cc(-c2ccc(F)c(C#N)c2)nc(C(C)(F)F)n1 [Example 394, N-(4-((6-(3-cyano-4-fluorophenyl)-2-(1,1-difluoroethyl)pyrimidin-4-yl)amino)-5-methoxypyridin-2-yl)acetamide] | ≤ 10 nM | 100 to 1000 nM
COc1cnc(NC(C)=O)cc1Nc1cc(-c2cn(C)nc2C(F)(F)F)nc(C(C)(F)F)n1 [Example 395, N-(4-((2-(1,1-difluoroethyl)-6-(1-methyl-3-(trifluoromethyl)-1H-pyrazol-4-yl)pyrimidin-4-yl)amino)-5-methoxypyridin-2-yl)acetamide] | ≤ 10 nM | 100 to 1000 nM
COc1cnc(NC(C)=O)cc1Nc1cc(-c2cc(F)c3nc(C)cn3c2)nc(C(C)(F)F)n1 [Example 398, N-(4-((2-(1,1-difluoroethyl)-6-(8-fluoro-2-methylimidazo[1,2-a]pyridin-6-yl)pyrimidin-4-yl)amino)-5-methoxypyridin-2-yl)acetamide] | ≤ 10 nM | 10 to 100 nM
COc1cnc(NC(C)=O)cc1Nc1cc(-c2ccc3nc(C)cn3n2)nc(C(C)(F)F)n1 [Example 399, N-(4-((2-(1,1-difluoroethyl)-6-(2-methylimidazo[1,2-b]pyridazin-6-yl)pyrimidin-4-yl)amino)-5-methoxypyridin-2-yl)acetamide] | ≤ 10 nM | 10 to 100 nM
COc1cnc(NC(C)=O)cc1Nc1cc(-c2cc(OC)c3nc(C)cn3c2)nc(C(C)(F)F)n1 [Example 401, N-(4-((2-(1,1-difluoroethyl)-6-(8-methoxy-2-methylimidazo[1,2-a]pyridin-6-yl)pyrimidin-4-yl)amino)-5-methoxypyridin-2-yl)acetamide] | ≤ 10 nM | 100 to 1000 nM
COc1cnc(NC(C)=O)cc1Nc1cc(-c2cc(C#N)c3nc(C)cn3c2)nc(C(C)(F)F)n1 [Example 402, N-(4-((6-(8-cyano-2-methylimidazo[1,2-a]pyridin-6-yl)-2-(1,1-difluoroethyl)pyrimidin-4-yl)amino)-5-methoxypyridin-2-yl)acetamide] | 10 to 100 nM | 100 to 1000 nM

Structure (SMILES) | IC50 (JH2 domain of human Tyk2) | IC50 (Tyk2)
CC(=O)Nc1cc(Nc2cc(C)nc(C(C)(F)F)n2)c(OCCF)cn1 [Example 404, N-(4-((2-(1,1-difluoroethyl)-6-methylpyrimidin-4-yl)amino)-5-(2-fluoroethoxy)pyridin-2-yl)acetamide] | ≤ 10 nM | 10 to 100 nM
CCc1cc(Nc2cc(NC(C)=O)ncc2OCCCF)nc(C(C)(F)F)n1 [Example 405, N-(4-((2-(1,1-difluoroethyl)-6-ethylpyrimidin-4-yl)amino)-5-(3-fluoropropoxy)pyridin-2-yl)acetamide] | ≤ 10 nM | 10 to 100 nM
CCc1cc(Nc2cc(NC(C)=O)ncc2OCCF)nc(C(C)(F)F)n1 [Example 407, N-(4-((2-(1,1-difluoroethyl)-6-ethylpyrimidin-4-yl)amino)-5-(2-fluoroethoxy)pyridin-2-yl)acetamide] | ≤ 10 nM | ≤ 10 nM
CO[C@H]1C[C@H](Oc2cnc(NC(C)=O)cc2Nc2cc(C(C)C)nc(C(C)(F)F)n2)C1 [Example 408, N-(4-((2-(1,1-difluoroethyl)-6-isopropylpyrimidin-4-yl)amino)-5-((1r,3r)-3-methoxycyclobutoxy)pyridin-2-yl)acetamide] | ≤ 10 nM | ≤ 10 nM
CO[C@H]1C[C@@H](Oc2cnc(NC(C)=O)cc2Nc2cc(C(C)C)nc(C(C)(F)F)n2)C1 [Example 409, N-(4-((2-(1,1-difluoroethyl)-6-isopropylpyrimidin-4-yl)amino)-5-((1s,3s)-3-methoxycyclobutoxy)pyridin-2-yl)acetamide] | ≤ 10 nM | 10 to 100 nM
CC(=O)Nc1cc(Nc2cc(C(C)C)nc(C(C)(F)F)n2)c(O[C@H]2C[C@H](F)C2)cn1 [Example 410, N-(4-((2-(1,1-difluoroethyl)-6-isopropylpyrimidin-4-yl)amino)-5-((1r,3r)-3-fluorocyclobutoxy)pyridin-2-yl)acetamide] | ≤ 10 nM | ≤ 10 nM
CC(=O)Nc1cc(Nc2cc(C(C)C)nc(C(C)(F)F)n2)c(O[C@H]2C[C@@H](F)C2)cn1 [Example 411, N-(4-((2-(1,1-difluoroethyl)-6-isopropylpyrimidin-4-yl)amino)-5-((1s,3s)-3-fluorocyclobutoxy)pyridin-2-yl)acetamide] | ≤ 10 nM | 10 to 100 nM
CC(=O)Nc1cc(Nc2cc(C)nc(C(C)(F)F)n2)c(O[C@H]2C[C@@H](F)C2)cn1 [Example 412, N-(4-((2-(1,1-difluoroethyl)-6-methylpyrimidin-4-yl)amino)-5-((1s,3s)-3-fluorocyclobutoxy)pyridin-2-yl)acetamide] | ≤ 10 nM | 10 to 100 nM
CCc1cc(Nc2cc(NC(C)=O)ncc2O[C@H]2C[C@@H](F)C2)nc(C(C)(F)F)n1 [Example 413, N-(4-((2-(1,1-difluoroethyl)-6-ethylpyrimidin-4-yl)amino)-5-((1s,3s)-3-fluorocyclobutoxy)pyridin-2-yl)acetamide] | ≤ 10 nM | ≤ 10 nM
CC(=O)Nc1cc(Nc2cc(-c3cnn(C(C)C)c3)nc(C(C)(F)F)n2)c(O[C@H]2C[C@@H](F)C2)cn1 [Example 414, N-(4-((2-(1,1-difluoroethyl)-6-(1-isopropyl-1H-pyrazol-4-yl)pyrimidin-4-yl)amino)-5-((1s,3s)-3-fluorocyclobutoxy)pyridin-2-yl)acetamide] | ≤ 10 nM | ≤ 10 nM
[2H]C([2H])([2H])Oc1cnc(NC(C)=O)cc1Nc1cc(OC2CC2)nc(C(C)(F)F)n1 [Example 415, N-(4-((6-cyclopropoxy-2-(1,1-difluoroethyl)pyrimidin-4-yl)amino)-5-(methoxy-d3)pyridin-2-yl)acetamide] | ≤ 10 nM | ≤ 10 nM
COc1cnc(NC(C)=O)cc1Nc1cc(-c2cn[nH]c2)nc(C(C)(F)F)n1 [Example 416, N-(4-((2-(1,1-difluoroethyl)-6-(1H-pyrazol-4-yl)pyrimidin-4-yl)amino)-5-methoxypyridin-2-yl)acetamide] | ≤ 10 nM | 100 to 1000 nM
CC(=O)Nc1cc(Nc2cc(C)nc(C(C)(F)F)n2)c(OCC2(F)CCCOC2)cn1 (centres unmarked) [Example 417, N-(4-((2-(1,1-difluoroethyl)-6-methylpyrimidin-4-yl)amino)-5-((3-fluorotetrahydro-2H-pyran-3-yl)methoxy)pyridin-2-yl)acetamide] | ≤ 10 nM | ≤ 10 nM
CC(=O)Nc1cc(Nc2cc(C)nc(C(C)(F)F)n2)c(OCC2COCC(C)(C)O2)cn1 (centres unmarked) [Example 419, N-(4-((2-(1,1-difluoroethyl)-6-methylpyrimidin-4-yl)amino)-5-((6,6-dimethyl-1,4-dioxan-2-yl)methoxy)pyridin-2-yl)acetamide] | ≤ 10 nM | ≤ 10 nM
CC(=O)Nc1cc(Nc2cc(C)nc(C(C)(F)F)n2)c(OCC(F)C2CCC2)cn1 (centres unmarked) [Example 420, N-(5-(2-cyclobutyl-2-fluoroethoxy)-4-((2-(1,1-difluoroethyl)-6-methylpyrimidin-4-yl)amino)pyridin-2-yl)acetamide] | ≤ 10 nM | 10 to 100 nM

From US20260028365A1 (BIOGEN MA INC., priority 2022, published 2026)
